Experimental data: patent publication US5169758A (Boehringer Mannheim GmbH, priority 1986, dated 1992)

Tested on: NAD(P)H-dependent, soluble nitrate reductase of the assimilatory type (E.C. 1.6.6.2) from mould fungus
Conditions: nitrite acts as inhibitor above this concentration

SMILES: O=NO [nitrite]
- Inhibitor concentration (product inhibition): more than 10^-4 M
